# Patent US20200017495A1, “NOVEL HETEROCYCLIC COMPOUNDS AND THEIR USE IN PREVENTING OR TREATING BACTERIAL INFECTIONS” (priority 2017, published 2020)
# Experiments:
# [1] = test system: Serratia marcescens (SMA) isolates; experiment: MIC of compounds alone and combined with antibacterials, broth microdilution (CLSI); assay type: cell-based
# Method in brief: (§1)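 First, log-phase suspensions are brought to 5.10^5 CFU/mL final in ca-MHB; plates then incubate 16-20 h at 35° C in air. Growth is judged visually, giving the compound MIC alone and the antibacterial MIC at each compound concentration.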
# [2] = test system: Klebsiella pneumoniae (KPN) isolates; experiment: as above; assay type: cell-based
# Method in brief: as §1
# [3] = strain SMA UFR30, genotype OXA-405
# [4] = strain SMA UFR134, genotype TEM-1, BES-1
# [5] = strain SMA UFR135, genotype TEM-1, KPC-2
# [6] = strain SMA UFR136, genotype TEM-1, SHV-12, KPC-2
# [7] = strain SMA UFR137, genotype SME-1
# [8] = strain SMA UFR138, genotype SME-1
# [9] = strain SMA UFR139, genotype SME-2
# [10] = strain SMA UFR141, genotype OXA-48
# [11] = strain SMA UFR142, genotype OXA-48
# [12] = strain SMA UFR143, genotype CTX-M-15, OXA-1, OXA-48
# [13] = strain SMA UFR238, genotype OXA-48
# [14] = strain SMA UFR239, genotype ESAC
compound,measurement,setting,value
"CC(C)(O/N=C(\C(=O)N[C@@H]1C(=O)N2C(C(=O)[O-])=C(C[n+]3ccccc3)CS[C@H]12)c1csc(N)n1)C(=O)O [CAZ, Ceftazidime]",MIC ATB in combination,"[1]; SMA UFR30, AF2 @ 8 μg/mL",0.5 µg/mL
same,MIC ATB in combination,"[1]; SMA UFR30, AF3 @ 8 μg/mL",<=0.25 μg/mL
same,MIC ATB in combination,"[1]; SMA UFR134, AF2 @ 8 μg/mL",<=0.25 μg/mL
same,MIC ATB in combination,"[1]; SMA UFR134, AF3 @ 8 μg/mL",0.5 µg/mL
same,MIC ATB in combination,"[1]; SMA UFR135, AF2 @ 8 μg/mL",2 µg/mL
same,MIC ATB in combination,"[1]; SMA UFR135, AF3 @ 8 μg/mL",4 µg/mL
same,MIC ATB in combination,"[1]; SMA UFR136, AF2 @ 8 μg/mL",2 µg/mL
same,MIC ATB in combination,"[1]; SMA UFR136, AF3 @ 8 μg/mL",1 µg/mL
same,MIC ATB in combination,"[1]; SMA UFR137, AF2 @ 8 μg/mL",<=0.25 μg/mL
same,MIC ATB in combination,"[1]; SMA UFR137, AF3 @ 8 μg/mL",0.5 µg/mL
same,MIC ATB in combination,"[1]; SMA UFR138, AF2 @ 8 μg/mL",0.5 µg/mL
same,MIC ATB in combination,"[1]; SMA UFR138, AF3 @ 8 μg/mL",<=0.25 μg/mL
same,MIC ATB in combination,"[1]; SMA UFR139, AF2 @ 8 μg/mL",1 µg/mL
same,MIC ATB in combination,"[1]; SMA UFR139, AF3 @ 8 μg/mL",<=0.25 μg/mL
same,MIC ATB in combination,"[1]; SMA UFR141, AF2 @ 8 μg/mL",<=0.25 μg/mL
same,MIC ATB in combination,"[1]; SMA UFR141, AF3 @ 8 μg/mL",0.5 µg/mL
same,MIC ATB in combination,"[1]; SMA UFR142, AF2 @ 8 μg/mL",0.5 µg/mL
same,MIC ATB in combination,"[1]; SMA UFR142, AF3 @ 8 μg/mL",0.5 µg/mL
same,MIC ATB in combination,"[1]; SMA UFR143, AF2 @ 8 μg/mL",<=0.25 μg/mL
same,MIC ATB in combination,"[1]; SMA UFR143, AF3 @ 8 μg/mL",<=0.25 μg/mL
same,MIC ATB in combination,"[1]; SMA UFR239, AF2 @ 8 μg/mL",4 µg/mL
same,MIC ATB in combination,"[1]; SMA UFR239, AF3 @ 8 μg/mL",0.5 µg/mL
same,MIC,[1]; [3],8 µg/mL
same,MIC,[1]; [4],8 µg/mL
same,MIC,[1]; [5],32 µg/mL
same,MIC,[1]; [6],>256 µg/mL
same,MIC,[1]; [7],0.5 µg/mL
same,MIC,[1]; [8],<=0.25 μg/mL
same,MIC,[1]; [9],<=0.25 μg/mL
same,MIC,"[1]; strain SMA UFR140, genotype IMP-1",>128 µg/mL
same,MIC ATB in combination,"[1]; strain SMA UFR140, with AF2 @ 8 μg/mL",>128 µg/mL
same,MIC ATB in combination,"[1]; strain SMA UFR140, with AF3 @ 8 μg/mL",>128 µg/mL
same,MIC,[1]; [10],1 µg/mL
same,MIC,[1]; [11],0.5 µg/mL
same,MIC,[1]; [12],64 µg/mL
same,MIC,[1]; [13],0.5 µg/mL
same,MIC ATB in combination,"[1]; strain SMA UFR238, with AF2 @ 8 μg/mL",0.5 µg/mL
same,MIC ATB in combination,"[1]; strain SMA UFR238, with AF3 @ 8 μg/mL",<=0.25 μg/mL
same,MIC,[1]; [14],32 µg/mL
"CO/N=C(\C(=O)N[C@@H]1C(=O)N2C(C(=O)O)=C(COC(N)=O)CS[C@H]12)c1ccco1 [FUR, Cefuroxime]",MIC,"[2]; strain KPN 6299, genotype TEM-1, SHV-11, OXA-163",>512 µg/mL
same,MIC,"[2]; strain KPN 110376, genotype TEM-1, SHV-1, CTX-M-15, OXA-1, OXA-48",>256 µg/mL
same,MIC,"[2]; strain KPN 121206, genotype SHV-1, NDM-1",>256 µg/mL
same,MIC,"[2]; strain KPN 131119, genotype TEM-1, SHV-11, CTX-M-15, OXA-1, OXA-48",>256 µg/mL
same,MIC,"[2]; strain KPN 140513, genotype TEM-1, SHV-11, CTX-M-15, KPC-3",>256 µg/mL
same,MIC,"[2]; strain KPN 160143, genotype TEM-1, SHV-1, CTX-M-15, KPC-2, OXA-1",>256 µg/mL
same,MIC,"[2]; strain KPN 190128, genotype TEM-1, SHV-32, CTX-M-15, OXA-1",>256 µg/mL
same,MIC,"[2]; strain KPN 190270, genotype TEM-1, SHV-76, CTX-M-15, OXA-1",>256 µg/mL
same,MIC,"[2]; strain KPN 190425, genotype TEM-1, SHV-1, CTX-M-15, OXA-1",>256 µg/mL
same,MIC,"[2]; strain KPN 190551, genotype TEM-1, SHV-1, CTX-M-15, OXA-1",>256 µg/mL
same,MIC,"[2]; strain KPN 200047, genotype TEM-1, SHV-32, CTX-M-15, OXA-1",>256 µg/mL
same,MIC,"[2]; strain KPN 200327, genotype TEM-1, SHV-1, CTX-M-15, OXA-1",>256 µg/mL
same,MIC,"[2]; strain KPN 260251, genotype TEM-1, SHV-11, SHV-12, CTX-M-15, KPC-2",>256 µg/mL
same,MIC,"[2]; strain KPN 260252, genotype TEM-1, SHV-11, KPC-3",>256 µg/mL
same,MIC,"[2]; strain KPN 260376, genotype SHV-1, SHV-49, OXA-1",>256 µg/mL
same,MIC,"[2]; strain KPN 270077, genotype TEM-1, SHV-1, CTX-M-15",>256 µg/mL
same,MIC,"[2]; strain KPN 700603, genotype SHV-18, OXA-2",32 µg/mL
same,MIC,"[2]; strain KPN ARA, genotype TEM-1, SHV-11, CTX-M-15, OXA-1, OXA-48",>256 µg/mL
same,MIC,"[2]; strain KPN BAA-1898, genotype TEM-1, SHV-11, SHV-12, KPC-2",>512 µg/mL
same,MIC,"[2]; strain KPN LIB, genotype SHV-11, OXA-48",16 µg/mL
same,MIC,"[2]; strain KPN UFR22_O, genotype TEM-1, SHV-1, OXA-48",32 µg/mL
same,MIC,"[2]; strain KPN UFR23, genotype TEM-1, SHV-1, OXA-48",8 µg/mL
same,MIC,"[2]; strain KPN UFR24, genotype TEM-1, SHV-2, SHV-11, OXA-1, OXA-48, OXA-47",128 µg/mL
same,MIC,"[2]; strain KPN UFR25, genotype TEM-1, SHV-11, CTX-M-15, OXA-162",>256 µg/mL
same,MIC,"[2]; strain KPN UFR27, genotype TEM-1, SHV-28, CTX-M-15, OXA-204",>256 µg/mL
same,MIC,"[2]; strain KPN UFR28, genotype TEM-1, SHV-1, CTX-M-15, OXA-1, OXA-232",>256 µg/mL
same,MIC,"[2]; strain KPN UFR42, genotype SHV-2, CTX-M-15 OXA-1, OXA-181, NDM-1",>256 µg/mL
same,MIC,"[2]; strain KPN UFR65, genotype TEM-1, SHV-11, KPC-2",>256 µg/mL
same,MIC,"[2]; strain KPN UFR66, genotype TEM-1, SHV-11, CTX-M-15, KPC-2",>256 µg/mL
same,MIC,"[2]; strain KPN UFR67, genotype TEM-1, SHV-11, KPC-3",>256 µg/mL
same,MIC,"[2]; strain KPN UFR68, genotype TEM-1, SHV-11, CTX-M-15, KPC-3",>256 µg/mL
same,MIC,"[2]; strain KPN UFR76, genotype TEM-155, SHV-11, ACT-1, OXA-2",>256 µg/mL
same,MIC,"[2]; strain KPN UFR77, genotype CMY-2",64 µg/mL
same,MIC,"[2]; strain KPN UFR78, genotype TEM-1, SHV-1, CTX-M-15, CMY-2, OXA-1, OXA-48",>256 µg/mL
same,MIC,"[2]; strain KPN UFR79, genotype DHA-1, OXA-1",>256 µg/mL
same,MIC,"[2]; strain KPN UFR80, genotype SHV-11, DHA-1, OXA-1",32 µg/mL
same,MIC,"[2]; strain KPN UFR81, genotype TEM-1, SHV-1, DHA-1, OXA-48",>256 µg/mL
same,MIC,"[2]; strain KPN UFR215, genotype SHV-27, CTX-M-15",>256 µg/mL
same,MIC,"[2]; strain KPN UFR216, genotype SHV-28, CTX-M-15",>256 µg/mL
same,MIC,"[2]; strain KPN UFR217, genotype TEM-1, SHV-1, CTX-M-15",>256 µg/mL
same,MIC,"[2]; strain KPN UFR219, genotype SHV-12, CTX-M-15",>256 µg/mL
same,MIC,"[2]; strain KPN UFR220, genotype TEM-1, SHV-12, DHA-1",>256 µg/mL
same,MIC,"[2]; strain KPN UFR221, genotype TEM-1, SHV-11, CTX-M-14, DHA-1",>256 µg/mL
same,MIC,"[2]; strain KPN UFR222, genotype DHA-2",>256 µg/mL
same,MIC,"[2]; strain KPN UFR227O, genotype TEM-x, SHV-x, CTX-M-x",>256 µg/mL
same,MIC,[1]; [3],>256 µg/mL
same,MIC,[1]; [4],>256 µg/mL
same,MIC,[1]; [5],>256 µg/mL
same,MIC,[1]; [6],>256 µg/mL
same,MIC,[1]; [7],256 µg/mL
same,MIC,[1]; [8],256 µg/mL
same,MIC,[1]; [9],>256 µg/mL
same,MIC,[1]; [10],>256 µg/mL
same,MIC,[1]; [11],>256 µg/mL
same,MIC,[1]; [12],>256 µg/mL
same,MIC,[1]; [13],>256 µg/mL
same,MIC,[1]; [14],256 µg/mL
